According to patent US9686971B2, “Methods for testing anti-thrombotic agents” (The Trustees of Columbia University in the City of New York, priority 2006, dated 2017):

What was measured:
[1] = tested on: human platelets; experiment: Tail bleeding assay, human platelet-induced hemostasis in homozygous VWF^1326R>H mice; assay type: in vivo, mouse; details: for human platelet-induced hemostatic clot / plug formation (words): PLAVIX 50 mg/kg oral day before and 2 h prior, ReoPro 0.25 mg/kg iv bolus then 0.125 μg/kg/min, 5 min after human platelets
Procedure: This assay provides an indirect measure of the ability of platelets and VWF to support hemostasis by interacting with the injured vessel wall. It also indirectly determines the function of multiple receptors and ligands on platelets that are required to form a hemostatic plug. […] It is performed by immersing the severed tip (10 mm) of the animal's tail in isotonic saline at 37° C. and monitoring the length of time required for bleeding to cease. Homozygous mutant mice will be infused with an equal volume of either saline or purified human platelets. Platelet specific antibodies or drugs will be administered as described above and their ability to prolong bleeding time evaluated. All experiments will be stopped at 10 min by cauterizing the tail (51).
Tail cuts were performed 5 min after completion of the infusion of platelets. PLAVIX and ReoPro® were obtained from the research pharmacy at CUMC. For studies involving PLAVIX, animals received a 50 mg/kg oral dose of the drug the day before and 2 h prior to the administration of human platelets.

[2] = target: T1, murine αIIbβ3 (Mus musculus, UniProt O54890+Q9QUM0); details: cited from earlier work
T1 sequence (Q9QUM0 32-1033): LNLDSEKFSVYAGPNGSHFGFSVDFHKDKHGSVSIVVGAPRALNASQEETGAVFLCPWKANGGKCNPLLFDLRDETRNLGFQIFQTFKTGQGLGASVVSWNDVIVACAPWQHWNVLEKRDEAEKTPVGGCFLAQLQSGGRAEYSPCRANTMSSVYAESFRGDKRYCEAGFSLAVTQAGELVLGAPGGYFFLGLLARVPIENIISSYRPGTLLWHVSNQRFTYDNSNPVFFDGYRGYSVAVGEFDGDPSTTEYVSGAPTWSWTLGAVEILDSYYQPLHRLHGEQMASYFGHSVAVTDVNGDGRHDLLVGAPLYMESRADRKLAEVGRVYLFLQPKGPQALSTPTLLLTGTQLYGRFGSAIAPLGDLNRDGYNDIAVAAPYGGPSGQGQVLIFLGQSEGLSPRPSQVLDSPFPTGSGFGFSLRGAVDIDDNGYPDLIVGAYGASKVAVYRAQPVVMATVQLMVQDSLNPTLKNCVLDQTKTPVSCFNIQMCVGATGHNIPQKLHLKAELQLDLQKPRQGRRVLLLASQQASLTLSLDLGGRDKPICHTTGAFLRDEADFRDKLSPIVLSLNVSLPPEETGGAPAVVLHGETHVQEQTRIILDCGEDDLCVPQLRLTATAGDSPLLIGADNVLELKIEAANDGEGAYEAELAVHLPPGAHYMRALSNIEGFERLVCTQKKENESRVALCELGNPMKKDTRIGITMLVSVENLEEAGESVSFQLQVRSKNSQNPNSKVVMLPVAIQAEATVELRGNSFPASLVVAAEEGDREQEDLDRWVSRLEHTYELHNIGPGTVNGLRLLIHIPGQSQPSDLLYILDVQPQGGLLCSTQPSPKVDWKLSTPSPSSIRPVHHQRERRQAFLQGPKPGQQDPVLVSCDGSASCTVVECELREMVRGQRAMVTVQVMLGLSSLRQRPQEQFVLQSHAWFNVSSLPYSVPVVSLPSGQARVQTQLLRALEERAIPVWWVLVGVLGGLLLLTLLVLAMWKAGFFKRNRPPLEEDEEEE
T1 sequence (O54890 26-787): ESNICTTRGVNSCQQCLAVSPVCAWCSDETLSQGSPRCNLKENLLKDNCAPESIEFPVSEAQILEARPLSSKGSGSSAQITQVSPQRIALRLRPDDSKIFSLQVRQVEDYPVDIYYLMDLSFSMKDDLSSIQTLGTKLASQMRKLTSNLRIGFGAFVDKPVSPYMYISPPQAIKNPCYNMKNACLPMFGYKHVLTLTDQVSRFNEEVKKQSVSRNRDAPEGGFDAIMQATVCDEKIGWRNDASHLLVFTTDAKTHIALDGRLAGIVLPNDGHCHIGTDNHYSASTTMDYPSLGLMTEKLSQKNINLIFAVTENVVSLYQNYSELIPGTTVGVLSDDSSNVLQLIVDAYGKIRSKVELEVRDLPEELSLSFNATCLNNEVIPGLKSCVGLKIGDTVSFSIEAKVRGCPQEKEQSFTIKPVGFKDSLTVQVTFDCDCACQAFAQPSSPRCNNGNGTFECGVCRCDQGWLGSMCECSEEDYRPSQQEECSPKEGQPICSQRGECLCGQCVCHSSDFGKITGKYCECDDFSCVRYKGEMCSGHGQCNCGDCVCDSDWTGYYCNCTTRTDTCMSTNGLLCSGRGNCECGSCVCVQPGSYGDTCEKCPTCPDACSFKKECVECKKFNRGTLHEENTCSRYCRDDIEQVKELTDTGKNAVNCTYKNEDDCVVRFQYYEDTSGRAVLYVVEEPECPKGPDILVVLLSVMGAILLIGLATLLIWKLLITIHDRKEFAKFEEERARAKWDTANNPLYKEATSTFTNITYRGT

With “abciximab: Fab fragment of the chimeric human-mouse monoclonal antibody 7E3, which blocks the function of αIIbβ3 on human platelets” the “human platelet-induced hemostatic clot / plug formation (words)” value [1] was “completely disrupted”, the “human platelet-induced hemostatic clot / plug formation (words)” value ([1]; listed as ReoPro) was “prevented the formation of a hemostatic plug” and the mean bleeding time ([1]; homozygous VWF^1326R>H mice, given after infusion of human platelets) was 579 s. For the same substance, the “binding / function of murine αIIbβ3” value [2] was “does not bind or disrupt the function of murine αIIbβ3”.
